From patent US6090829A, “Method for treating excessive aggression” (Eli Lilly and Company, priority 1998, dated 2000) come the findings set out here.

Experiment [1] addresses 3H-oxotremorine-M binding (muscarinic receptors). Briefly: 3H-oxotremorine-M binding inhibition. Particulars: radioligand 3H-oxotremorine-M; read-out: inhibition constant (Ki) for binding of 3H-oxotremorine-M.
A further experiment deals with D2 receptor subtype. The experiment is described as follows: pharmacological studies at the D2 receptor subtype.
The subject of a further experiment is m4 receptors. The experiment is described as follows: cAMP formation in CHO m4 cells treated with pertussis toxin. The experiment is classed as cell-based. An excerpt:
Muscarinic agonists stimulate the formation of cAMP up to 10 fold in CHO m4 cells treated with pertussisi toxin and the pharmacology is consistent with the mediation by m4 receptors. Eckols K. Soc. Neurosci Abstr., 21:2040 (1995).
On the technique in general: Cyclic AMP is a second messenger, typically raised through Gs and lowered through Gi signalling.

Usually Ki stands for the dissociation constant of the complex between target and ligand, obtained from inhibition or displacement. In the case of `CCCCCCOc1nsnc1C1=CCCN(C)C1` [xanomeline, 3-(4-hexyloxy-1,2,5-thiadiazol-3-yl)-1,2,5,6-tetrahydro-1-methylpyridine], the Ki in experiment [1] worked out at 2 nM. Besides, the “activity at the D2 receptor subtype” value in the experiment with D2 receptor subtype is “active”. Further, the “stimulation of the formation of cAMP” value in the experiment with m4 receptors was “efficaciously and potently stimulated the formation of cAMP”.
